Reference: patent US20240101572A1, “DIHYDROOXADIAZINONE COMPOUND AND PHARMACEUTICAL USE THEREOF” (Japan Tobacco Inc., priority 2022, published 2024)
Like-named read-outs stand apart in the source and are kept apart here.

Key:
[1] = biological target: full-length human PLD1 (Homo sapiens (Human), UniProt Q13393); assay: Evaluation of human PLD1 enzyme inhibitory activity (Amplex Red / choline oxidase fluorescence); assay type: biochemical
Procedure, shortened: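 N-terminally FLAG-tagged full-length human PLD1 (1-1036), expressed in Expi293F and FLAG-purified, incubated with compound (5% DMSO final) and 1,2-diheptanoyl-sn-glycero-3-phosphocholine for 60 min at room temperature in HEPES pH 7.5 buffer. Released choline detected by Amplex Red/choline oxidase/HRP fluorescence.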

[2] = biological target: full-length human PLD2 (Homo sapiens (Human), UniProt O14939); assay: Evaluation of human PLD2 enzyme inhibitory activity (Amplex Red / choline oxidase fluorescence); assay type: biochemical
Chain of full-length human PLD2 (O14939 whole entry): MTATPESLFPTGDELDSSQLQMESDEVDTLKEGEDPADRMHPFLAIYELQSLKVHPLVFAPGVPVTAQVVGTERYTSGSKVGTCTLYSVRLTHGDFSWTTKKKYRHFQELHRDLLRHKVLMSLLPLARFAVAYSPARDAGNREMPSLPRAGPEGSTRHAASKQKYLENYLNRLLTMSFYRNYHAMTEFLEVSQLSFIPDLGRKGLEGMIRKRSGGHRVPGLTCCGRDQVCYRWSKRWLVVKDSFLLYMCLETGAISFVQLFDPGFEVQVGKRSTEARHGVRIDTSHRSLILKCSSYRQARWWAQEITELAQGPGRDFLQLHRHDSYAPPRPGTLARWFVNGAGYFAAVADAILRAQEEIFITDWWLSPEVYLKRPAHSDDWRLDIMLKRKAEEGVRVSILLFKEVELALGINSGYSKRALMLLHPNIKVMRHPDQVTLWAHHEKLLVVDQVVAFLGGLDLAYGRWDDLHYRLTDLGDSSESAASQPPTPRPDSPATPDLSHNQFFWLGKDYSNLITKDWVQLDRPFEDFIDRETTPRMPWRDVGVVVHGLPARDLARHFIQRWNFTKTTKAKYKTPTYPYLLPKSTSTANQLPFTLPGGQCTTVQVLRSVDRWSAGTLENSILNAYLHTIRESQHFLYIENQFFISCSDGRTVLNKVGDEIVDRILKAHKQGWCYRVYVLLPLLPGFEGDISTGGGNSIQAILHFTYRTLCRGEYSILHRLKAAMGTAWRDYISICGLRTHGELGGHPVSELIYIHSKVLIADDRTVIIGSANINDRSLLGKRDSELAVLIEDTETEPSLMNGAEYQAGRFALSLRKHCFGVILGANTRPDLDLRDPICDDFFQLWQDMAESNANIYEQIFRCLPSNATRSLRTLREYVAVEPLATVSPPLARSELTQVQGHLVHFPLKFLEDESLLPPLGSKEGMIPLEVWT
Procedure, shortened: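 Enzyme was N-terminal FLAG-tagged full-length human PLD2 (1-933), expressed in Expi293F cells and anti-FLAG purified. Compound (5% DMSO final) was incubated with enzyme (6 nmol/L solution) and 1,2-diheptanoyl-PC (6 mmol/L solution) in HEPES pH 7.5, KCl, EGTA, MgCl2, NP-40, BSA buffer for 60 min at room temperature. Choline was detected with Amplex Red/choline oxidase/HRP.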

[3] = full-length human PLD1 enzyme, read-out: PLD1 IC50
[4] = full-length human PLD2 enzyme, read-out: PLD2 IC50

Chain of full-length human PLD1 (Q13393 other isoform, or with tags, fused parts or gaps): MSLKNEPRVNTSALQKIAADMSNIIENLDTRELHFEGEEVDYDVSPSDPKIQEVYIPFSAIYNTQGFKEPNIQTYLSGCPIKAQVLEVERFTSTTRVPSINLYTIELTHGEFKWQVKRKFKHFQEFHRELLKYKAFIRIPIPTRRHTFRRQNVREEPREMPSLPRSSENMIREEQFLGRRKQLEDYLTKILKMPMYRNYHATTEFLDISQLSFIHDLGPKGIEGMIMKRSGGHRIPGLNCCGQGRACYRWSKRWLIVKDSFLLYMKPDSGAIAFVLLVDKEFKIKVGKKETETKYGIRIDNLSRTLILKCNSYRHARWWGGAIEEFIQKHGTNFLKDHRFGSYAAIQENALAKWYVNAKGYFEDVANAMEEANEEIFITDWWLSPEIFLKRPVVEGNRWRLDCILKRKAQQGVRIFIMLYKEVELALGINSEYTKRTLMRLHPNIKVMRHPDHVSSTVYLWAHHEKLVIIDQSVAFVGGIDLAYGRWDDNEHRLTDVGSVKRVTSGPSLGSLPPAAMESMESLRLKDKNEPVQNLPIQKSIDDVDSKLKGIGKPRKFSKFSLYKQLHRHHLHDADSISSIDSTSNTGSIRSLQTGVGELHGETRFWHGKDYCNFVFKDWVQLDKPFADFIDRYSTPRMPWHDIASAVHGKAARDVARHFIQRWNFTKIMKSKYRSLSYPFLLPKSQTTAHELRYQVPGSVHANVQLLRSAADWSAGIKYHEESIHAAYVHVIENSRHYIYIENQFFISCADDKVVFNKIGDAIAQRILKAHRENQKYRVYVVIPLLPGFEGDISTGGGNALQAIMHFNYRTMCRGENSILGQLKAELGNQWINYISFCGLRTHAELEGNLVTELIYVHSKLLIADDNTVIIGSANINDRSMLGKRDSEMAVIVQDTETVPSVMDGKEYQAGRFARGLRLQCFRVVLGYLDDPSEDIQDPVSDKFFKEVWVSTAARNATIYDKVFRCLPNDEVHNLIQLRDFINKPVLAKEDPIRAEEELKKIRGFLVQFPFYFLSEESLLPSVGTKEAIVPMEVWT

| Structure (SMILES) | IC50 [1, 3] | IC50 [2, 4] | further results |
| --- | --- | --- | --- |
| CNC(=O)C(=O)N[C@@H](C)C[C@H]1CC[C@]2(CC1)OC(=O)NN=C2c1cc(OC)ncc1Br [Example 2-074] | 11 nM | < 10 nM | – |
| Cc1cc(C(=O)N[C@@H](C)C[C@H]2CC[C@]3(CC2)OC(=O)NN=C3c2ccc(C(=O)NC3CC3)cc2C)[nH]n1 [Example 204] | 123 nM | 146 nM | – |
| CNC(=O)C(=O)N[C@@H](C)C[C@H]1CC[C@]2(CC1)OC(=O)NN=C2c1cnc(C#N)cc1C [Example 188] | 44 nM | 33 nM | – |
| Cc1cc(C(=O)NC[C@@H](C)N2CCC3(CC2)OC(=O)NN=C3c2ccc(C#N)cc2Br)[nH]n1 [Example 332] | 2600 nM | 15 nM | – |
| Cc1cc(C(=O)N[C@@H](C)C[C@H]2CC[C@]3(CC2)OC(=O)NN=C3c2cnc(N3C[C@H]4C[C@@H]3CO4)cc2Cl)[nH]n1 [Example 239] | 18 nM | < 10 nM | – |
| C[C@@H](CN1CCC2(CC1)OC(=O)NN=C2c1ccc(C#N)cc1Br)NC(=O)c1cncn1C [Example 2-059] | 731 nM | 505 nM | – |
| CNC(=O)C(=O)N[C@@H](C)C[C@H]1CC[C@]2(CC1)OC(=O)NN=C2c1cnc(N2CCCC2)cc1C [Example 165] | 19 nM | < 10 nM | – |
| CC(C)c1cc(F)ccc1C1=NNC(=O)O[C@]12CC[C@@H](C[C@H](C)NC(=O)c1cc(Cl)no1)CC2 [Example 134] | 21 nM | 30 nM | – |
| C[C@@H](C[C@H]1CC[C@]2(CC1)OC(=O)NN=C2c1ccc(F)cc1Br)NC(=O)OC(C)(C)C [Example 34] | – | – | inhibition at 10 µM ([1]; 10 μM compound, read-out: PLD1 inhibition rate at 10 μM): 36%; inhibition at 10 µM ([1]; read-out: inhibition rate of PLD1 at 10 μM compound): 36%; inhibition at 10 µM ([2]; 10 μM compound, read-out: PLD2 inhibition rate at 10 μM): 17%; inhibition at 10 µM ([2]; read-out: inhibition rate of PLD2 at 10 μM compound): 17% |
| C[C@@H](C[C@H]1CC[C@]2(CC1)OC(=O)NN=C2c1cc(C#N)ccc1Br)NC(=O)c1ncon1 [Example 293] | 127 nM | 325 nM | – |
| C[C@@H](C[C@H]1CC[C@]2(CC1)OC(=O)NN=C2c1ccc(S(C)(=O)=O)cc1Cl)NC(=O)c1cc2ccccc2o1 [Example 53] | 19 nM | < 10 nM | – |
| CNC(=O)C(=O)N[C@@H](C)C[C@H]1CC[C@]2(CC1)OC(=O)NN=C2c1cnc(C2CC2)cc1C [Example 171] | 13 nM | < 10 nM | – |
| CNC(=O)C(=O)N[C@@H](C)C[C@H]1CC[C@]2(CC1)OC(=O)NN=C2c1cc(C(C)(C)O)ccc1Br [Example 2-026] | 12 nM | < 10 nM | – |
| CNC(=O)C(=O)N[C@@H](C)C[C@H]1CC[C@]2(CC1)OC(=O)NN=C2c1ccc(S(C)(=O)=O)cc1 [Example 10] | 92 nM | 106 nM | – |
| CNC(=O)C(=O)N[C@@H](C)C[C@H]1CC[C@]2(CC1)OC(=O)NN=C2c1cnc(N2CCOCC2)cc1Cl [Example 242] | 16 nM | < 10 nM | – |
| CNC(=O)C(=O)N[C@@H](C)C[C@]1(C#N)CC[C@@]2(CC1)OC(=O)NN=C2c1cccc(C(F)(F)F)c1Br [Example 2-076] | 11 nM | < 10 nM | – |
| Cc1cc(F)ccc1C1=NNC(=O)O[C@]12CC[C@@H](C[C@H](C)NC(=O)c1ccc(Cl)cn1)CC2 [Example 89] | 38 nM | 37 nM | – |

| Structure (SMILES) | IC50 [1, 3] | IC50 [2, 4] | further results |
| --- | --- | --- | --- |
| C[C@@H](C[C@H]1CC[C@]2(CC1)OC(=O)NN=C2c1ccc(F)cc1)NC(=O)c1cc2cc(F)ccc2[nH]1 [Example 4] | 36 nM | 11 nM | – |
| CNC(=O)C(=O)N[C@@H](C)CC1CC[C@]2(C[C@@H]1F)OC(=O)NN=C2c1ccc(F)cc1Br (stereo partly shown) [Example 285] | < 10 nM | < 10 nM | – |
| Cc1cc(C(=O)N[C@@H](C)C[C@H]2CC[C@]3(CC2)OC(=O)NN=C3c2cnc(N3CC4CCC(C3)O4)cc2Cl)[nH]n1 [Example 247] | 14 nM | < 10 nM | – |
| C[C@@H](C[C@H]1CC[C@]2(CC1)OC(=O)NN=C2c1ccc(C#N)cc1Br)NC(=O)c1cc(C2CC2)n[nH]1 [Example 2-072] | 14 nM | 24 nM | – |
| COc1cc(C)c(C2=NNC(=O)O[C@]23CC[C@@H](C[C@H](C)NC(=O)N2CCn4nncc4C2)CC3)cn1 [Example 235] | 35 nM | 13 nM | – |
| CNC(=O)C(=O)N[C@@H](C)CN1CC2CC1CC21OC(=O)NN=C1c1ccc(F)cc1Br (mixture of isomers) [Example 2-005] | 433 nM | 35 nM | – |
| C[C@@H](C[C@H]1CC[C@]2(CC1)OC(=O)NN=C2c1cc(C#N)ccc1Br)NC(=O)c1cnn(C)c1 [Example 325] | 15 nM | < 10 nM | – |
| C=C(OCC)c1ccc(C2=NNC(=O)O[C@]23CC[C@@H](C[C@H](C)NC(=O)C(=O)NC)CC3)c(C)c1 [Example 163] | < 10 nM | < 10 nM | – |
| CNC(=O)C(=O)N[C@@H](C)C[C@H]1CC[C@]2(CC1)OC(=O)NN=C2c1cc(C(=O)NC(C)(C)C)ccc1Br [Example 299] | 25 nM | < 10 nM | – |
| Cc1cc(N2CCOCC2)ccc1C1=NNC(=O)O[C@]12CC[C@@H](C[C@H](C)NC(=O)C(=O)NC1CC1)CC2 [Example 218] | 23 nM | 13 nM | – |
| Cc1cc(C(=O)N[C@@H](C)C[C@H]2CC[C@]3(CC2)OC(=O)NN=C3c2ccc(F)cc2Br)[nH]n1 [Example 12] | < 10 nM | < 10 nM | – |
| C[C@@H](C[C@H]1CC[C@]2(CC1)OC(=O)NN=C2c1ccc(C#N)cc1Br)NC(=O)c1cc(Cl)no1 [Example 71] | < 10 nM | < 10 nM | – |
| C[C@@H](C[C@H]1CC[C@]2(CC1)OC(=O)NN=C2c1ccccc1SC(F)(F)F)NC(=O)c1cnn(C)c1 [Example 2-020] | 21 nM | 16 nM | – |
| CNC(=O)C(=O)N[C@@H](C)C[C@]1(C#N)CC[C@@]2(CC1)OC(=O)NN=C2c1ccc(OC(F)F)cc1Br [Example 2-067] | 15 nM | < 10 nM | – |
| Cc1cc(F)ccc1C1=NNC(=O)O[C@]12CC[C@@H](C[C@H](C)NC(=O)N1CC[C@H](c3ccccc3)C1)CC2 [Example 137] | 505 nM | 1590 nM | – |
| Cc1cc(C(=O)N[C@@H](C)C[C@H]2CC[C@]3(CC2)OC(=O)NN=C3c2ccc(C#N)cc2Cl)[nH]n1 [Example 176] | 29 nM | 29 nM | – |
| [2H]C([2H])([2H])NC(=O)C(=O)N[C@@H](C)C[C@]1(C#N)CC[C@@]2(CC1)OC(=O)NN=C2c1cc(OC(F)F)ccc1Br [Example 2-113] | – | – | IC50 ([1]; column 1 of continuation tables 2-12 to 2-14, read-out: human PLD1 enzyme inhibitory activity IC50): 14 nM; IC50 ([2]; column 2 of continuation tables 2-12 to 2-14, read-out: human PLD2 enzyme inhibitory activity IC50): < 10 nM |
